The results in this text go back to patent publication US20060110804A1, “Method of treating an organ for transplantation” (priority 2004, published 2006).

The test system of data set [1] is liver grafts. The data set is described as follows: Liver isograft transplantation model: blood levels of AST, ALT and LDH (graft injury). The note with it: washing with irrigation solution containing a higher concentration of bilirubin than 5 to 10 μmol/L. It is filed as in vivo, rat. As for the experimental part:
(§1) To examine in vivo effects of HO-1 preconditioning, a model experiment for liver isograft transplantation was carried out. Male inbred Lewis rats of 220-280 g were allowed to drink water without any restriction, fasted for 24 hours before the experiment, and provided for use as donors and recipients for liver transplantation. In HO-1 preconditioning groups, the rats were hemin-treated at 18 hours before graft preparation in the same manner as used in the ex vivo experiment of Example 1. Liver transplantation was performed according to the technique developed by Kamada (see Document 25) with minor modifications. More specifically, the donors were anesthetized by intraperitoneal injection of pentobarbital sodium (40 mg/kg body weight) and then laparotomized. […]
(§2) In light of Example 7 showing that short-term washing with bilirubin was effective for recovery of post-reperfusion stasis and cell injury in the liver grafts cold-preserved for 16 hours, further attempts were made to examine the in vivo effect of bilirubin washing against post-transplantation injury in the cold-preserved grafts. […] The level of bile output was measured at 30 minutes and 24 hours after initiation of reperfusion. To determine the degree of graft injury at 24 hours after initiation of reperfusion, blood levels of aspartate aminotransferase (AST), alanine aminotransferase (ALT) and LDH were measured in a standard manner. […]

In a further data set the test system is liver parenchymal cells. In words: Immunohistological detection of bilirubin in graft tissue with monoclonal antibody 24G7. It is filed as in vivo, rat. Here is the method: To examine the effect of bilirubin washing on the accessibility of bilirubin to graft tissues, immunohistological detection of bilirubin was performed using the anti-bilirubin-IXα monoclonal antibody 24G7 according to a previously reported method of the inventors (see Document 27). As observed in the grafts perfused with bilirubin-free lactated Ringer's solution (A), the monoclonal antibody 24G7 triggered an immune reaction primarily in liver non-parenchymal cells including Kupffer cells.

Data set [2] deals with liver grafts. In words: Liver isograft transplantation model: bile output after initiation of reperfusion. It is filed as in vivo, rat. The conditions noted are these: grafts washed with Ringer's solution containing a higher concentration of bilirubin than 5 to 10 μmol/L. Here is the method:
as §1, §2

Data set [3] relates to liver grafts. In words: Bile output of cold-preserved liver grafts during ex vivo reperfusion. Set-up: species or system rat. The note with it: for bile output vs bilirubin-free control: hemin-untreated C16 grafts, 5 μmol/L bilirubin; for bile output: hemin-treated grafts, 16-hour cold preservation, reperfused with 1 μmol/L of the protoporphyrin.
Description: The rats injected with hemin or physiological saline were anesthetized by intraperitoneal injection of pentobarbital sodium (40 mg/kg body weight) and a PE-10 catheter for bile sample collection was inserted into the common bile duct of each rat. A 16-gauge catheter was inserted into the portal vein and 20 ml lactated Ringer's solution kept at 4° C. was passed through the catheter. Subsequently, rat livers were perfused with 20 ml University of Wisconsin solution (UW solution) of 4° C., excised and then preserved in the same solution at 4° C. for 16 hours. […] After cold preservation for 16 hours, each liver graft was reperfused via the portal vein with 95% oxygen-5% carbon dioxide-saturated Krebs-Henseleit buffer (pH 7.4, 37° C.) at 4 ml/min/g liver in the presence of 30 μmol/L sodium taurocholate (see Document 4).
In the hemin-treated liver grafts from Example 1, after 16-hour cold preservation (Hemin/C16), bile samples were collected from the common bile duct every 5 minutes during 40 minute reperfusion. […] The hemin-untreated grafts receiving no cold preservation (Control) and 16-hour cold preservation (C16) were also provided for the same measurement.
The grafts were reperfused with carbogen-saturated Krebs-Henseleit buffer (pH 7.4, 37° C.) supplemented with bilirubin (Sigma Chemical, Co.) and/or CO in combination with 1 μmol/L ZnPP. […] Similarly, hemin-untreated (a) and hemin-treated (b) grafts were provided in the absence of ZnPP for use as controls.
The same experiment as described in Example 4 was repeated, except that the doses of bilirubin and/or CO were varied. After being cold-preserved for 16 hours, the hemin-treated grafts were reperfused for 30 minutes in the presence of ZnPP using reperfusate containing various concentrations of bilirubin and/or CO, and then measured for the levels of bile output, bile salts and phospholipids in bile from the grafts, which were determined in percentages relative to those obtained by reperfusion in the absence of ZnPP.
Data set [4] relates to liver grafts. The data set is described as follows: LDH released into hepatic venous perfusate of ex vivo reperfused liver grafts (liver cell damage). Details: species or system rat. As for the experimental part: As in the case of Example 5, after being cold-preserved for 16 hours, the hemin-treated grafts were reperfused for 30 minutes in the presence of ZnPP using reperfusate containing varying concentrations of bilirubin, and then measured for the amount of lactate dehydrogenase (LDH) released into the hepatic venous perfusate, which was indicative of liver cell damage in the grafts. For use as controls, hemin-untreated grafts receiving 16-hour cold preservation (C16) and hemin-treated grafts receiving 16-hour cold preservation (Hemin/C16) were provided in the absence of ZnPP. The amount of LDH was measured as described in an earlier document (see Document 24). […] The grafts were divided into the following test groups: (a) receiving 5 minute reperfusion with the bilirubin-containing buffer and subsequent 35 minute reperfusion in the absence of bilirubin, (b) receiving 15 minute reperfusion with the bilirubin-containing buffer and subsequent 25 minute reperfusion in the absence of bilirubin, and (c) receiving 40 minute perfusion with the bilirubin-containing buffer. As a control group (d), the cold-preserved grafts received only bilirubin-free perfusion for 40 minutes. Bile output was then measured over time for each group. Further, FIGS. 6(B) and (C) show the relationship between reperfusion time with the bilirubin-containing buffer and bile output from the grafts and the relationship between reperfusion time and venous LDH concentration, respectively.

In data set [5] the test system is liver grafts. The data set is classed as in vivo. The note with it: grafts washed with 50 μmol/L bilirubin-containing Ringer's solution. As for the experimental part:
as §1, §2

Data set [6] concerns liver grafts. In words: Bilirubin-IXα concentration in bile of ex vivo reperfused liver grafts (ELISA, antibody 24G7). The conditions noted are these: hemin-treated C16 grafts, co-perfusion with 1 μmol/L ZnPP compared to CuPP. Details: species or system rat. Here is the method:
The rats injected with hemin or physiological saline were anesthetized by intraperitoneal injection of pentobarbital sodium (40 mg/kg body weight) and a PE-10 catheter for bile sample collection was inserted into the common bile duct of each rat. A 16-gauge catheter was inserted into the portal vein and 20 ml lactated Ringer's solution kept at 4° C. was passed through the catheter. Subsequently, rat livers were perfused with 20 ml University of Wisconsin solution (UW solution) of 4° C., excised and then preserved in the same solution at 4° C. for 16 hours. Since acute oxidative stress would eventually occur, as judged by intracellular hydroperoxide production which occurred concurrently with a reduction of bile formation, a time period of 16 hours was selected for preservation purposes. […]
In the hemin-treated liver grafts from Example 1, after 16-hour cold preservation (Hemin/C16), bile samples were collected from the common bile duct every 5 minutes during 40 minute reperfusion. The bile samples collected at 30 minutes after initiation of reperfusion were also measured for their bilirubin-IXα concentration by enzyme-linked immunosorbent assay detection using the monoclonal antibody 24G7 capable of recognizing both conjugated and unconjugated bilirubin fractions, as described in earlier documents (see Documents 21 and 22). […]

Data set [7] has as its system liver grafts. In words: Bile salts and phospholipids in bile of ex vivo reperfused liver grafts (enzyme inhibition assay). The conditions noted are these: hemin-treated C16 grafts, 30 minute reperfusion, concentration of 5 μmol/L or less. Details: species or system rat. As for the experimental part: To examine whether bilirubin and/or CO could recover the HO-1-inducing effect inhibited by ZnPP, a strong HO activity inhibitor, the following experiment was carried out. The grafts were reperfused with carbogen-saturated Krebs-Henseleit buffer (pH 7.4, 37° C.) supplemented with bilirubin (Sigma Chemical, Co.) and/or CO in combination with 1 μmol/L ZnPP. […] The total amounts of bile salts and phospholipids in bile samples were measured by enzyme inhibition assay according to a reported method (see Document 23).
An attempt was made to examine dose-dependent effects of bilirubin and/or CO during co-perfusion. […] After being cold-preserved for 16 hours, the hemin-treated grafts were reperfused for 30 minutes in the presence of ZnPP using reperfusate containing various concentrations of bilirubin and/or CO, and then measured for the levels of bile output, bile salts and phospholipids in bile from the grafts, which were determined in percentages relative to those obtained by reperfusion in the absence of ZnPP.

“Also recorded” adds a separate entry of the source.

Turning to `C=CC1=C(C)/C(=C/c2[nH]c(Cc3[nH]c(/C=C4\NC(=O)C(C)=C4C=C)c(C)c3CCC(=O)O)c(CCC(=O)O)c2C)NC1=O` [bilirubin], the “cell injury (sAST, sALT, sLDH) at 24 hours after transplantation” value in the data set on liver grafts [1] is given as “exacerbation of cell injury”. Also, the entries for the “accessibility of bilirubin to liver parenchymal cells (immune reaction)” value with liver parenchymal cells (grafts washed with bilirubin-containing Ringer's solution) and with liver parenchymal cells (grafts washed with bilirubin-containing Ringer's solution supplemented with PPF) were “highly absorbed into liver parenchymal cells” and “accessibility of bilirubin was canceled”, respectively. The “bile output after transplantation” value in the data set on liver grafts [2] was “cholestasis occurred”. Further, in the data set with liver grafts [3] (hemin-treated C16 grafts, 30 minutes, 5 μmol/L bilirubin in the presence of ZnPP), the “adverse effect on bile secretion or cell survival” value was “no adverse effect”. The “bile output vs bilirubin-free control” value in the data set with liver grafts [3] (15 minute reperfusion then 25 minutes without bilirubin) and in the data set on liver grafts [3] (40 minute perfusion) was “significant decrease” throughout. Moreover, the “LDH release (graft damage)” value in the data set on liver grafts [4] (hemin-untreated C16 grafts, prolonged reperfusion with 5 μmol/L bilirubin-containing buffer) is “increases in LDH release”. For the same molecule, in the data set on liver grafts [5], the “rats able to survive for 24 hours after transplantation” value is “None”.
Take `C=CC1=C(C)c2cc3[n-]c(cc4[n-]c(cc5nc(cc1n2)C(C)=C5C=C)c(C)c4CCC(=O)O)c(CCC(=O)O)c3C.[Zn+2]` [ZnPP, zinc protoporphyrin-IX]: in the data set on liver grafts [3], the bile output entry is on record as “reduced bile output; also recorded: canceled the effect of hemin treatment”. In the data set on liver grafts [6], the “bilirubin levels in bile” value is “significant decrease”. Further, the “venous LDH release” value in the data set with liver grafts [4] is on record as “significantly increased”.
In the case of `[C-]#[O+]` [CO, carbon monoxide], in the data set on liver grafts [7], the “percentage of bile salts in bile relative to reperfusion in the absence of ZnPP” value was “no recovery” and the “percentage of phospholipids in bile relative to reperfusion in the absence of ZnPP” value is “no recovery”. In addition, the “recovery of ZnPP-induced reduction of bile output” value in the data set with liver grafts [3] (hemin-treated C16 grafts, 30 minute co-perfusion, 1 μmol/L ZnPP, 5 μmol/L of each test substance) was “could not achieved”. In the data set on liver grafts [3] (hemin-treated C16 grafts, ZnPP, 30 minute reperfusion, concentration of 5 μmol/L or less), the “percentage of bile output relative to reperfusion in the absence of ZnPP” value is recorded as “no recovery”.
In the case of copper protoporphyrin-IX [CuPP], the bile output entry with liver grafts [3] was “substantially the same bile output”.
